This is an account of results in ChEMBL document CHEMBL1143343, “Cooperative alkylation of double-strand human telomere repeat sequences by PI polyamides with 11-base-pair recognition based on a heterotrimeric design” (Bioorg Med Chem, 2009).

The term IC50 denotes the concentration that inhibits the measured activity by half.

The subject of test [1] is Calf thymus DNA. Kind of test: Binding affinity to site 2 human telomeric 5'GGTTAGGGTTA3' sequence in 219 bp calf thymus DNA fragment assessed as DNA alkylating activity at 20 to 500 nM after 12 hrs by PAGE in presence of {3-[(4-{[4-({4-[(4-Acetylamino-1-methyl-1H-pyrrole-2-carbonyl)-amino]-1-methyl-1H-pyrrole-2-carbonyl}-amino)-1-methyl-1H-pyrrole-2-carbonyl]-amino}-1-methyl-1H-pyrrole-2-carbonyl)-amino]-propyl}-dimethyl-ammonium. The format is nucleic-acid assay.

The test system of test [2] is Jurkat. In words: Cytotoxicity against human Jurkat cells after 48 hrs by WST-8 assay in presence of 10 uM distamycin A pretreated 24 hrs before compound addition. Format: functional, cell-based. (Tetrazolium dyes change colour on reduction, which living cells bring about.)
For test [3], the system named is Calf thymus DNA. In words: Binding affinity to site 4 human telomeric 5'GGTTAGGGTTA3' sequence in 219 bp calf thymus DNA fragment assessed as DNA alkylating activity at 20 to 500 nM after 12 hrs by PAGE in presence of distamycin A. Format: nucleic-acid assay.
In test [4] the test system is Calf thymus DNA. Kind of test: Binding affinity to site 4 human telomeric 5'GGTTAGGGTTA3' sequence in 219 bp calf thymus DNA fragment assessed as DNA alkylating activity at 20 to 500 nM after 12 hrs by PAGE in presence of {3-[(4-{[4-({4-[(4-Acetylamino-1-methyl-1H-pyrrole-2-carbonyl)-amino]-1-methyl-1H-pyrrole-2-carbonyl}-amino)-1-methyl-1H-pyrrole-2-carbonyl]-amino}-1-methyl-1H-pyrrole-2-carbonyl)-amino]-propyl}-dimethyl-ammonium. The format is nucleic-acid assay.

In test [5] the test system is Calf thymus DNA. In words: Binding affinity to human telomeric repeat sequence in 219 bp calf thymus DNA fragment assessed as DNA alkylating activity at 20 to 500 nM after 12 hrs by PAGE. The format is nucleic-acid assay.
Test [6] has as its system Calf thymus DNA. In words: Binding affinity to human telomeric repeat sequence in 219 bp calf thymus DNA fragment assessed as DNA alkylating activity at 200 nM after 12 hrs by PAGE in presence of distamycin A. Format: nucleic-acid assay.
In test [7] the test system is Jurkat. Kind of test: Cytotoxicity against human Jurkat cells after 48 hrs by WST-8 assay. The format is functional, cell-based.
Test [8] has as its system Calf thymus DNA. In words: Binding affinity to site 3 human telomeric 5'GGTTAGGGTTA3' sequence in 219 bp calf thymus DNA fragment assessed as DNA alkylating activity at 20 to 500 nM after 12 hrs by PAGE in presence of {3-[(4-{[4-({4-[(4-Acetylamino-1-methyl-1H-pyrrole-2-carbonyl)-amino]-1-methyl-1H-pyrrole-2-carbonyl}-amino)-1-methyl-1H-pyrrole-2-carbonyl]-amino}-1-methyl-1H-pyrrole-2-carbonyl)-amino]-propyl}-dimethyl-ammonium. The format is nucleic-acid assay.

Test [9] has as its system Calf thymus DNA. In words: Binding affinity to site 2 human telomeric 5'GGTTAGGGTTA3' sequence in 219 bp calf thymus DNA fragment assessed as DNA alkylating activity at 20 to 500 nM after 12 hrs by PAGE in presence of distamycin A. The format is nucleic-acid assay.
Test [10] concerns Jurkat. In words: Cytotoxicity against human Jurkat cells after 48 hrs by WST-8 assay in presence of 10 uM {3-[(4-{[4-({4-[(4-Acetylamino-1-methyl-1H-pyrrole-2-carbonyl)-amino]-1-methyl-1H-pyrrole-2-carbonyl}-amino)-1-methyl-1H-pyrrole-2-carbonyl]-amino}-1-methyl-1H-pyrrole-2-carbonyl)-amino]-propyl}-dimethyl-ammonium pretreated 24 hrs before compound addition. The format is functional, cell-based.

Test [11] relates to Calf thymus DNA. In words: Binding affinity to human telomeric repeat sequence in 219 bp calf thymus DNA fragment assessed as DNA alkylating activity at 200 nM after 12 hrs by PAGE in presence of {3-[(4-{[4-({4-[(4-Acetylamino-1-methyl-1H-pyrrole-2-carbonyl)-amino]-1-methyl-1H-pyrrole-2-carbonyl}-amino)-1-methyl-1H-pyrrole-2-carbonyl]-amino}-1-methyl-1H-pyrrole-2-carbonyl)-amino]-propyl}-dimethyl-ammonium. The format is nucleic-acid assay.

The subject of test [12] is Calf thymus DNA. In words: Binding affinity to human telomeric repeat sequence in 219 bp calf thymus DNA fragment assessed as DNA alkylating activity at 20 to 500 nM after 12 hrs by PAGE in presence of 3-(4-(4-(4-(3-(3-(4-(4-(4-(4-acetamido-1-methyl-1H-pyrrole-2-carboxamido)-1-methyl-1H-pyrrole-2-carboxamido)-1-methyl-1H-pyrrole-2-carboxamido)-1-methyl-1H-pyrrole-2-carboxamido)propanamido)propanamido)-1-methyl-1H-pyrrole-2-carboxamido)-1-methyl-1H-pyrrole-2-carboxamido)-1-methyl-1H-pyrrole-2-carboxamido)-N,N-dimethylpropan-1-aminium. Format: nucleic-acid assay.

Test [13] deals with Calf thymus DNA. Kind of test: Binding affinity to site 3 human telomeric 5'GGTTAGGGTTA3' sequence in 219 bp calf thymus DNA fragment assessed as DNA alkylating activity at 20 to 500 nM after 12 hrs by PAGE in presence of distamycin A. Format: nucleic-acid assay.

The source made the active and inactive calls. The rule behind the calls is not given here.

`CC(=O)Nc1cn(C)c(C(=O)Nc2cn(C)c(C(=O)Nc3cn(C)c(C(=O)NCCC(=O)NCCC(=O)Nc4cn(C)c(C(=O)Nc5cn(C)c(C(=O)Nc6cn(C)c(C(=O)Nc7ccc8[nH]c(C(=O)N9CC(CCl)c%10c9cc(O)c9ccccc%109)cc8c7)n6)n5)n4)n3)n2)n1` (stereo not drawn): the outcome in test [1], in test [3], in [4], in test [6], in [8] and in test [9] was Active. Moreover, the result in test [11], in test [12] and in [13] was Active. The IC50 in [2] was 32 nM; in [7], 100 nM; in test [10] it was 79 nM. The result in [5] was inactive.
